Reference: US20260209152A1, “Substituted Hydroxystilbene Compounds and Derivatives, Synthesis and Uses Thereof” (Kynan Duke IP, LLC, priority 2019, published 2026)
Like-named read-outs stand apart in the source and are kept apart here.

Key:
Tongue CAL 27 = assay: CellTiter Glo cell viability assay; assay type: cell-based, human; conditions: for IC50: Homo sapiens
Method: (§1) 1.7*10^3 cells/well were seeded in quadruplicates in 96-well plate after plating. Drugs were added at 5 μM and 2-fold dilutions over 18 concentrations (0.000038146-5 […] range) to generate a dose-response curve. Cell growth was assessed on day 1, 3 and 5 after drug treatments using the CellTiter Glo Luminescence Cell Viability Assay (Promega) according to manufacturer's protocol. Thermo Scientific Varioskan LUX Multimode Microplate instrument was used for plate reading. Data are expressed as mean luminescence (arbitrary units) ±S.D.
(§2) Cell Viability Assays were employed to determine the concentration of Compound 1 (KYN-001) and analogues where the response is reduced by half. For each treatment of cancer cells, 1, 2, 5, 10 and 20 μM solutions of compounds were applied. GraphPad Prism 7 software was used to fit dose response curves. Relative Luminescence Units were plotted against the log values of the doses used and the nonlinear regression model was used for data analysis.
(§3) The protocol for cell proliferation was optimized for Compound 8 (KYN-119) to enable a more accurate assessment of its low IC50 value. In this protocol, 18 dosages (2 fold dilutions ranging from 0.000038146 to 5 μM) were applied to cells seeded in 96-well plates, and Luminescence was measured after 1, 3 and 5 days upon treatments.

Lung NCI-H1573 = assay: CellTiter Glo cell viability assay; assay type: cell-based, human; conditions: for IC50: Homo sapiens
Method: as §1, §2, §3

Bladder SCABER = assay: CellTiter Glo cell viability assay; assay type: cell-based, human; conditions: for IC50: Homo sapiens
Method: as §1, §2, §3

Liver SNU-398 = assay: CellTiter Glo cell viability assay; assay type: cell-based, human; conditions: for IC50: Homo sapiens
Method: as §1, §2, §3

Lung NCI-H2126 = assay: CellTiter Glo cell viability assay; assay type: cell-based, human; conditions: for IC50: Homo sapiens
Method: as §1, §2, §3

Bladder HT-1197 = assay: CellTiter Glo cell viability assay; assay type: cell-based, human; conditions: for IC50: Homo sapiens
Method: as §1, §2, §3

Liver SNU-423 = assay: CellTiter Glo cell viability assay; assay type: cell-based, human; conditions: for IC50: Homo sapiens
Method: as §1, §2, §3

Bladder UMUC_3 = assay: CellTiter Glo cell viability assay; assay type: cell-based, human; conditions: for IC50: Homo sapiens
Method: as §1, §2, §3

Liver HepG2 = assay: CellTiter Glo cell viability assay; assay type: cell-based, human; conditions: for IC50: Homo sapiens
Method: as §1, §2, §3

Tongue UPCI: SCC090 = assay: CellTiter Glo cell viability assay; assay type: cell-based, human; conditions: for IC50: Homo sapiens
Method: as §1, §2, §3

Kidney Caki-2 = assay: CellTiter Glo cell viability assay; assay type: cell-based, human; conditions: for IC50: Homo sapiens
Method: as §1, §2, §3

Pancreatic BxPC3 = assay: CellTiter Glo cell viability assay; assay type: cell-based, human; conditions: for IC50: Homo sapiens
Method: as §1, §2, §3

Osteosarcomas SAOS-2 = assay: CellTiter Glo cell viability assay; assay type: cell-based, human; conditions: for IC50: Homo sapiens
Method: as §1, §2, §3

Rhabomyosarcoma TE 159.T = assay: CellTiter Glo cell viability assay; assay type: cell-based, human
Method: as §1, §2, §3

Kidney Caki-1 = assay: CellTiter Glo cell viability assay; assay type: cell-based, human; conditions: for IC50: Homo sapiens
Method: as §1, §2, §3

Bladder T24 = assay: CellTiter Glo cell viability assay; assay type: cell-based, human; conditions: for IC50: Homo sapiens
Method: as §1, §2, §3

Pancreatic HPAFII = assay: CellTiter Glo cell viability assay; assay type: cell-based, human; conditions: for IC50: Homo sapiens
Method: as §1, §2, §3

Pancreatic CAPAN-1 = assay: CellTiter Glo cell viability assay; assay type: cell-based; conditions: Homo sapiens; Capan-1/HTB-79; 11 dilutions 3-0.00001 μM
GBM patient sample BNA99 = assay: Ex vivo GBM 3D spheroid drug response (CellTiter-Glo 3D); assay type: cell-based, human; conditions: Homo sapiens, 96 h, 3D spheroids; 4 days post drug treatment
Text: (§4) This project involves an ex vivo drug response screen for 3 ROKiT Pharma test agents and Temozolomide in 3 previously dissociated and cryopreserved GBM samples.
(§5) • 2.1 Three previously processed GBM patient samples were chosen to be used in this study.

GBM patient sample BNB18 = assay: as above; assay type: cell-based, human; conditions: Homo sapiens, 96 h, 3D spheroids; 4 days post drug treatment
Text: as §4, §5

[1] = CAL 27/CRL-2095, 11 dilutions 3-0.00001 μM, read-out: IC50
[2] = IC50 of 1 [KYN-001] vs 8 [KYN-119], 3 Days
[3] = NCI-H1573/CRL-5877, 11 dilutions 3-0.00001 μM, read-out: IC50
[4] = SCaBER/HTB-3, 11 dilutions 3-0.00001 μM, read-out: IC50
[5] = SNU-398/CRL-2233, 11 dilutions 3-0.00001 μM, read-out: IC50
[6] = NCI-H2126/CCL-256, 11 dilutions 3-0.00001 μM, read-out: IC50
[7] = HT1197, HT-1197/CRL-1473, 11 dilutions 3-0.00001 μM, read-out: IC50
[8] = SNU-423/CRL-2238, 11 dilutions 3-0.00001 μM, read-out: IC50
[9] = UMUC3, UM-UC-3/CRL-1749, 11 dilutions 3-0.00001 μM, read-out: IC50
[10] = HepG2, Hep G2/HB-8065, 11 dilutions 3-0.00001 μM, read-out: IC50
[11] = 72 h, 3 Days of treatment, 18 2-fold dilutions 5-0.00003 μM, read-out: Average IC50
[12] = UPCI: SCC090/CRL-3239, 11 dilutions 3-0.00001 μM, read-out: IC50
[13] = Caki-2/HTB-47, 11 dilutions 3-0.00001 μM, read-out: IC50
[14] = BxPC-3/CRL-1687, 11 dilutions 3-0.00001 μM, read-out: IC50
[15] = Saos-2/HTB-85, 11 dilutions 3-0.00001 μM, read-out: IC50
[16] = Caki-1/HTB-46, 11 dilutions 3-0.00001 μM, read-out: IC50
[17] = T24/HTB-4, 11 dilutions 3-0.00001 μM, read-out: IC50
[18] = HPAF-II/CRL-1997, 11 dilutions 3-0.00001 μM, read-out: IC50

CCOc1cc(O)cc(/C=C/c2ccc(O)c(OC)c2)c1CC=C(C)C [Compound 8, (E)-3-Ethoxy-5-(4-hydroxy-3-methoxystyryl)-4-(3-methylbut-2-en-1-yl)phenol]
IC50 (Tongue CAL 27; CAL-27, 72 h, 3 Days of treatment, 18 2-fold dilutions 5-0.00003 μM, read-out: Average IC50): 38.3 nM
IC50 (Tongue CAL 27; [1]): 30.9 nM
Fold IC50 (Tongue CAL 27; [2]): 1.5
IC50 (Lung NCI-H1573; NCI-H1573, 72 h, 3 Days of treatment, 18 2-fold dilutions 5-0.00003 μM, read-out: Average IC50): 20.5 nM
IC50 (Lung NCI-H1573; [3]): 33.5 nM
Fold IC50 (Lung NCI-H1573; [2]): 11
IC50 (Bladder SCABER; SCaBER, 72 h, 3 Days of treatment, 18 2-fold dilutions 5-0.00003 μM, read-out: Average IC50): 10.1 nM
IC50 (Bladder SCABER; [4]): 27.3 nM
Fold IC50 (Bladder SCABER; [2]): 3.3
IC50 (Liver SNU-398; SNU-398, 72 h, 3 Days of treatment, 18 2-fold dilutions 5-0.00003 μM, read-out: Average IC50): 8.15 nM
IC50 (Liver SNU-398; [5]): 74.6 nM
Fold IC50 (Liver SNU-398; [2]): 5.3
IC50 (Lung NCI-H2126; NCI-H2126, 72 h, 3 Days of treatment, 18 2-fold dilutions 5-0.00003 μM, read-out: Average IC50): 1.73 nM
IC50 (Lung NCI-H2126; [6]): 33.1 nM
Fold IC50 (Lung NCI-H2126; [2]): 44
IC50 (Bladder HT-1197; HT1197, 72 h, 3 Days of treatment, 18 2-fold dilutions 5-0.00003 μM, read-out: Average IC50): 11.5 nM
IC50 (Bladder HT-1197; [7]): 48.5 nM
Fold IC50 (Bladder HT-1197; [2]): 22
IC50 (Liver SNU-423; SNU-423, 72 h, 3 Days of treatment, 18 2-fold dilutions 5-0.00003 μM, read-out: Average IC50): 6.23 nM
IC50 (Liver SNU-423; [8]): 79.7 nM
Fold IC50 (Liver SNU-423; [2]): 5.4
IC50 (Bladder UMUC_3; UMUC3, 72 h, 3 Days of treatment, 18 2-fold dilutions 5-0.00003 μM, read-out: Average IC50): 5.48 nM
IC50 (Bladder UMUC_3; [9]): 54.8 nM
Fold IC50 (Bladder UMUC_3; [2]): 5.7
IC50 (Liver HepG2; HepG2, 72 h, 3 Days of treatment, 18 2-fold dilutions 5-0.00003 μM, read-out: Average IC50): 20.2 nM
IC50 (Liver HepG2; [10]): 296 nM
Fold IC50 (Liver HepG2; [2]): 11
IC50 (Tongue UPCI: SCC090; [11]): 26 nM
IC50 (Tongue UPCI: SCC090; [12]): 0.5 nM
Fold IC50 (Tongue UPCI: SCC090; [2]): 3.5
IC50 (Kidney Caki-2; CAKI-2, 72 h, 3 Days of treatment, 18 2-fold dilutions 5-0.00003 μM, read-out: Average IC50): 281 nM
IC50 (Kidney Caki-2; [13]): 524 nM
Fold IC50 (Kidney Caki-2; [2]): 4.0
IC50 (Pancreatic BxPC3; BXPC-3, 72 h, 3 Days of treatment, 18 2-fold dilutions 5-0.00003 μM, read-out: Average IC50): 355 nM
IC50 (Pancreatic BxPC3; [14]): 387 nM
Fold IC50 (Pancreatic BxPC3; [2]): 3.0
IC50 (Osteosarcomas SAOS-2; SAOS-2, 72 h, 3 Days of treatment, 18 2-fold dilutions 5-0.00003 μM, read-out: Average IC50): 15.4 nM
IC50 (Osteosarcomas SAOS-2; [15]): 79.1 nM
Fold IC50 (Osteosarcomas SAOS-2; [2]): 7.2
IC50 (Rhabomyosarcoma TE 159.T; Homo sapiens, 72 h, 3 Days of treatment, 18 2-fold dilutions 5-0.00003 μM, read-out: Average IC50): 19.6 nM
Fold IC50 (Rhabomyosarcoma TE 159.T; [2]): 7.5
IC50 (Kidney Caki-1; CAKI-1, 72 h, 3 Days of treatment, 18 2-fold dilutions 5-0.00003 μM, read-out: Average IC50): 8.9 nM
IC50 (Kidney Caki-1; [16]): 27.9 nM
Fold IC50 (Kidney Caki-1; [2]): 12
IC50 (Bladder T24; [11]): 22.5 nM
IC50 (Bladder T24; [17]): 61.1 nM
Fold IC50 (Bladder T24; [2]): 5.8
IC50 (Pancreatic HPAFII; HPAF-II, 72 h, 3 Days of treatment, 18 2-fold dilutions 5-0.00003 μM, read-out: Average IC50): 403 nM
IC50 (Pancreatic HPAFII; [18]): 242 nM
Fold IC50 (Pancreatic HPAFII; [2]): 2.7
IC50 (Pancreatic CAPAN-1): 2320 nM

CCOc1cc(O)cc(/C=C/c2ccc(O)c(O)c2)c1CC=C(C)C [Compound 20, (E)-4-(3-Ethoxy-5-hydroxy-2-(3-methylbut-2-en-1-yl)styryl)benzene-1,2-diol]
IC50 (Tongue CAL 27; [1]): 40.9 nM
IC50 (Lung NCI-H1573; [3]): 55.8 nM
IC50 (Bladder SCABER; [4]): 53.7 nM
IC50 (Liver SNU-398; [5]): 110 nM
IC50 (Lung NCI-H2126; [6]): 97 nM
IC50 (Bladder HT-1197; [7]): 61.7 nM
IC50 (Liver SNU-423; [8]): 119 nM
IC50 (Bladder UMUC_3; [9]): 126 nM
IC50 (Liver HepG2; [10]): 234 nM
IC50 (Tongue UPCI: SCC090; [12]): 47.8 nM
IC50 (Kidney Caki-2; [13]): 302 nM
IC50 (Pancreatic BxPC3; [14]): 1410 nM
IC50 (Osteosarcomas SAOS-2; [15]): 129 nM
IC50 (Kidney Caki-1; [16]): 96.3 nM
IC50 (Bladder T24; [17]): 111 nM
IC50 (Pancreatic HPAFII; [18]): 638 nM
IC50 (Pancreatic CAPAN-1): 2240 nM
IC50 (GBM patient sample BNA99): 19100 nM
IC50 (GBM patient sample BNB18): 4560 nM

CCOc1cc(O)cc(/C=C/c2ccc(NC=O)c(OC)c2)c1CC=C(C)C [Compound 28, (E)-N-(4-(3-Ethoxy-5-hydroxy-2-(3-methylbut-2-en-1-yl)styryl)-2-methoxyphenyl)formamide]
IC50 (Tongue CAL 27; [1]): 5 nM
IC50 (Lung NCI-H1573; [3]): 21.2 nM
IC50 (Bladder SCABER; [4]): 6 nM
IC50 (Liver SNU-398; [5]): 32.7 nM
IC50 (Lung NCI-H2126; [6]): 10.7 nM
IC50 (Bladder HT-1197; [7]): 12.2 nM
IC50 (Liver SNU-423; [8]): 27.5 nM
IC50 (Bladder UMUC_3; [9]): 21.3 nM
IC50 (Liver HepG2; [10]): 99.1 nM
IC50 (Tongue UPCI: SCC090; [12]): 56.1 nM
IC50 (Kidney Caki-2; [13]): 69.8 nM
IC50 (Pancreatic BxPC3; [14]): 175 nM
IC50 (Osteosarcomas SAOS-2; [15]): 23.3 nM
IC50 (Kidney Caki-1; [16]): 7.2 nM
IC50 (Bladder T24; [17]): 22.1 nM
IC50 (Pancreatic HPAFII; [18]): 111 nM
IC50 (Pancreatic CAPAN-1): 735 nM
